Ki and IC50 data for 17 molecules are collected here from patent US11684616B2, “Azalactam compounds as HPK1 inhibitors” (PFIZER INC., priority 2020, dated 2023).

In general, Ki refers to the dissociation constant of the complex between target and ligand, obtained from inhibition or displacement. As a reminder, the IC50 is the point on the concentration scale where inhibition reaches its midpoint.

For assay [1], the target named is human full-length autophosphorylated recombinant HPK1 (Homo sapiens (Human), UniProt Q92918). Description: HPK1 biochemical enzyme assay (chelation-enhanced fluorescence, CHEF). As to conditions: 0.5 nM HPK1, 45 μM ATP, Morrison fit. A digest of the protocol:
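Autophosphorylated full-length human HPK1 from Sf21 cells, His-tag removed by TEV, residual N-terminal Gly-Ser. Activity measured with a C-Sox fluorescent peptide substrate (CHEF); initial velocities followed at λex 360/λem 500 nm, 30 °C for 15 min.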

For assay [2], the system named is Phospho-SLP-76 (Ser376) in Jurkat cells. Description: Phospho-SLP-76 (Ser376) HTRF assay in anti-CD3 stimulated Jurkat cells. As to conditions: Homo sapiens, Jurkat, 30 min pre-treatment, anti-CD3 stimulation 15 min, read-out: pSLP76 IC50. Type of assay: cell-based. On the procedure:
Cell Based Assays Phospho-SLP-76 (Ser376) Homogeneous Time Resolved Fluorescence (HTRF) Assay
Jurkat cells were seeded at 90,000 cells/well in 90 uL of RPMI1640 growth medium containing 10% FBS and incubated at 37° C. with 5% CO2 overnight. The following day, compounds were serially diluted from a 10 mM top dose for an 11-point 3-fold dilution curve in DMSO. Compounds were intermediately diluted 1:100 into growth media prior to diluting 1:10 on cells for final concentration 10 μM to 0.1 nM in 0.1% DMSO. After 30 min pre-treatment with compounds, the cells were stimulated using 200 μg/mL of F(ab)2 complexed anti-CD3 (clone UCTH1) for 15 min at 37° C. with 5% CO2. Stimulation was stopped with ice cold PBS and cells were harvested by centrifugation before lysis in Cisbio lysis buffer (Cisbio, Bedford, Mass.). Lysates were transferred to white, low-volume plates containing anti-phospho-SLP-76-Cryptate plus anti-phospho-SLP-76-d2 HTRF antibodies and incubated overnight at room temperature protected from light according to the manufacturer's protocol (Cisbio, Bedford, Mass.). HTRF was measured on a Perkin Elmer Envision and IC50 values were calculated by concentration-response curve fitting utilizing four-parameter nonlinear regression analyses.

Chain of human full-length autophosphorylated recombinant HPK1 (Q92918 other isoform, or with tags, fused parts or gaps): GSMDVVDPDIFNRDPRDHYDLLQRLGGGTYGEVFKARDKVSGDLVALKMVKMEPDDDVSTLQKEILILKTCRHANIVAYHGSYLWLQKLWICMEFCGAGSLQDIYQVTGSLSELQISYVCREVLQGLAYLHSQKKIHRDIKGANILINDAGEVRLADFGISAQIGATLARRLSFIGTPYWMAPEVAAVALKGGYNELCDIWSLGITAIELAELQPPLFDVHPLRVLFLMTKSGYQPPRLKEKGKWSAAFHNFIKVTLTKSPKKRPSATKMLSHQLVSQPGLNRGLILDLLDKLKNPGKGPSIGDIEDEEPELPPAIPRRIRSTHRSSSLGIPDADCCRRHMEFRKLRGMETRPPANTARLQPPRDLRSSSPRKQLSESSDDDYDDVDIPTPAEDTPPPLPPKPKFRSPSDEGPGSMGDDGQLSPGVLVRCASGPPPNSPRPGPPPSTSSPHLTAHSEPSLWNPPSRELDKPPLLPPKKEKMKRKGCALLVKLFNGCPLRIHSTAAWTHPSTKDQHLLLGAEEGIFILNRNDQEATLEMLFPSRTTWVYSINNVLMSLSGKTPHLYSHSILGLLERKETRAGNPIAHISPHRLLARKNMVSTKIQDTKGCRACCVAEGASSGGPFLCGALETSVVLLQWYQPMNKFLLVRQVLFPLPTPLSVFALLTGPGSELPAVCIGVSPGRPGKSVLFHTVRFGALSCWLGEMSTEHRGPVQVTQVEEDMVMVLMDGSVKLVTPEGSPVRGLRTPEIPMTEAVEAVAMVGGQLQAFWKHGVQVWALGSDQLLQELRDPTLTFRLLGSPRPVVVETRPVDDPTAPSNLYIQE

For `CCn1cnnc1-c1cccc(N2Cc3c(cc(N(C)C)nc3[C@H](C)N)C2=O)n1` (single isomer, unassigned) [Example 152, 4-[(1ξ)-1-aminoethyl]-6-(dimethyl-amino)-2-[6-(4-ethyl-4H-1,2,4-triazol-3-yl)pyridin-2-yl]-2,3-dihydro-1H-pyrrolo[3,4-c]pyridin-1-one], the Ki in assay [1] stood at 1.53 nM. In addition, the IC50 in assay [2] worked out at 191 nM.

`CCn1c(C)nnc1-c1cccc(N2Cc3c(cc(N4CCC[C@H]4C)nc3[C@@H](C)N)C2=O)n1` (single isomer, unassigned) [Example 154]: the inhibition constant Ki in assay [1] came out at 0.25 nM. In addition, the IC50 in assay [2] was 120 nM.

Turning to `CCn1c(C)nnc1-c1cccc(N2Cc3c(cc(N4CCC[C@H]4C)nc3[C@H](C)N)C2=O)n1` (single isomer, unassigned) [Example 155], the Ki in assay [1] amounted to 0.24 nM. The 50% inhibitory concentration (IC50) in assay [2] was found to be 113 nM.

Consider `C[C@@H]1CCCN1c1cc2c(c(C(C)(C)N)n1)CN(c1cccc(-c3nnc4n3[C@@H](C)CC4)n1)C2=O` [Example 17, 4-(2-aminopropan-2-yl)-2-{6-[(5S)-5-methyl-6,7-dihydro-5H-pyrrolo[2,1-c][1,2,4]triazol-3-yl]pyridin-2-yl}-6-[(2R)-2-methylpyrroli-din-1-yl]-2,3-dihydro-1H-pyrrolo[3,4-c]pyridin-1-one], for which the Ki in assay [1] was less than 0.05 nM. Further, the IC50 in assay [2] is 23 nM.

Turning to `CC[C@@H](N)c1nc(N(C)C(C)C)cc2c1CN(c1cccc(-c3nnc4n3[C@@H](CO)CC4)n1)C2=O` [Example 20, 4-[(1R)-1-aminopropyl]-2-{6-[(5R)-5-(hydroxy-methyl)-6,7-dihydro-5H-pyrrolo[2,1-c][1,2,4]triazol-3-yl]pyridin-2-yl}-6-[methyl(propan-2-yl)amino]-2,3-dihydro-1H-pyrrolo[3,4-c]pyridin-1-one], in assay [1], the Ki was less than 0.05 nM. The IC50 in assay [2] came to 23 nM.

On to `CC[C@@H](N)c1nc(N(C)C)cc2c1CN(c1cccc(-c3nnc4n3[C@@H](C)CC4)n1)C2=O` [Example 28, 4-[(1R)-1-aminopropyl]-6-(dimethyl-amino)-2-{6-[(5S)-5-methyl-6,7-dihydro-5H-pyrrolo[2,1-c][1,2,4]triazol-3-yl]pyridin-2-yl}-2,3-dihydro-1H-pyrrolo[3,4-c]pyridin-1-one], for which, in assay [1], the Ki is less than 0.045 nM. Moreover, in assay [2], the IC50 turned out to be 64 nM.

For `CC(C)N(C)c1cc2c(c([C@@H](C)N)n1)CN(c1cccc(-c3nnc4n3[C@@H](CF)CC4)n1)C2=O` [Example 29, 4-[(1R)-1-aminoethyl]-2-{6-[(5R)-5-(fluoromethyl)-6,7-dihydro-5H-pyrrolo[2,1-c][1,2,4]triazol-3-yl]pyridin-2-yl}-6-[methyl(propan-2-yl)amino]-2,3-dihydro-1H-pyrrolo[3,4-c]pyridin-1-one], the Ki in assay [1] amounted to 0.2 nM. The IC50 in assay [2] was 72 nM.

For `C[C@@H]1CCCN1c1cc2c(c([C@@H](C)N)n1)CN(c1cccc(-c3nnc4n3[C@@H](CO)CC4)n1)C2=O` [Example 30, 4-[(1R)-1-aminoethyl]-2-{6-[(5R)-5-(hydroxy-methyl)-6,7-dihydro-5H-pyrrolo[2,1-c][1,2,4]triazol-3-yl]pyridin-2-yl}-6-[(2R)-2-methylpyrroli-din-1-yl]-2,3-dihydro-1H-pyrrolo[3,4-c]pyridin-1-one], in assay [1], the Ki was less than 0.05 nM. Moreover, the IC50 in assay [2] came out at 62 nM.

`CC[C@@H](N)c1nc(N2CCC[C@H]2C)cc2c1CN(c1cccc(-c3nnc4n3[C@@H](CO)CC4)n1)C2=O` [Example 31, 4-[(1R)-1-aminopropyl]-2-{6-[(5R)-5-(hydroxy-methyl)-6,7-dihydro-5H-pyrrolo[2,1-c][1,2,4]triazol-3-yl]pyridin-2-yl}-6-[(2R)-2-methylpyrroli-din-1-yl]-2,3-dihydro-1H-pyrrolo[3,4-c]pyridin-1-one]: the Ki in assay [1] is less than 0.05 nM. Besides, the IC50 in assay [2] worked out at 42 nM.

With `CC[C@@H](N)c1nc(N2CCC[C@H]2C)cc2c1CN(c1cccc(-c3nnc4n3[C@@H](CF)CC4)n1)C2=O` [Example 32, 4-[(1R)-1-aminopropyl]-2-{6-[(5R)-5-(fluoromethyl)-6,7-dihydro-5H-pyrrolo[2,1-c][1,2,4]triazol-3-yl]pyridin-2-yl}-6-[(2R)-2-methylpyrroli-din-1-yl]-2,3-dihydro-1H-pyrrolo[3,4-c]pyridin-1-one], the Ki in assay [1] came to 0.06 nM. Moreover, the IC50 in assay [2] worked out at 46 nM.

As for `CC[C@@H](N)c1nc(N(C)C)cc2c1CN(c1cccc(-c3nnc4n3[C@@H](CF)CC4)n1)C2=O` [Example 33, 4-[(1R)-1-aminopropyl]-6-(dimethyl-amino)-2-{6-[(5R)-5-(fluoromethyl)-6,7-dihydro-5H-pyrrolo [2,1-c][1,2,4]triazol-3-yl]pyridin-2-yl}-2,3-dihydro-1H-pyrrolo[3,4-c]pyridin-1-one], the Ki in assay [1] was determined as 0.21 nM. The IC50 in assay [2] came out at 179 nM.

Take `CC[C@@H](N)c1nc(N(C)C(C)C)cc2c1CN(c1cccc(-c3nnc4n3[C@@H](CF)CC4)n1)C2=O` [Example 34, 4-[(1R)-1-aminopropyl]-2-{6-[(5R)-5-(fluoromethyl)-6,7-dihydro-5H-pyrrolo[2,1-c][1,2,4]triazol-3-yl]pyridin-2-yl}-6-[methyl (propan-2-yl)amino]-2,3-dihydro-1H-pyrrolo[3,4-c]pyridin-1-one]: in assay [1], the Ki is 0.15 nM. Further, the IC50 in assay [2] stood at 26 nM.

`CCn1cnnc1-c1cccc(N2Cc3c(cc(C4(C)CC4)nc3[C@@H](C)NC)C2=O)n1` [Example 111, 2-[6-(4-ethyl-4H-1,2,4-triazol-3-yl)pyridin-2-yl]-4-[(1R)-1-(methylamino)ethyl]-6-(1-methylcyclo-propyl)-2,3-dihydro-1H-pyrrolo[3,4-c]pyridin-1-one]: the Ki in assay [1] was 3.42 nM. Moreover, in assay [2], the IC50 was 470 nM.

In the case of `CCn1cnnc1-c1cccc(N2Cc3c(cc(C4(C)CC4)nc3[C@H](C)NC)C2=O)n1` [Example 112, 2-[6-(4-ethyl-4H-1,2,4-triazol-3-yl)pyridin-2-yl]-4-[(1S)-1-(methylamino)ethyl]-6-(1-methylcyclo-propyl)-2,3-dihydro-1H-pyrrolo[3,4-c]pyridin-1-one], in assay [1], the Ki amounted to 0.77 nM. In addition, the IC50 in assay [2] is 421 nM.

On to `CCCn1cnnc1-c1cccc(N2Cc3c(cc(C4(C)CC4)nc3[C@H](C)NC)C2=O)n1` [Example 113, 4-[(1S)-1-(methylamino)ethyl]-6-(1-methylcyclo-propyl)-2-[6-(4-propyl-4H-1,2,4-triazol-3-yl)pyridin-2-yl]-2,3-dihydro-1H-pyrrolo[3,4-c]pyridin-1-one], for which the Ki in assay [1] worked out at 0.67 nM. In assay [2], the IC50 came to 133 nM.

For the molecule `CCn1cnnc1-c1cccc(N2Cc3c(cc(C4(C)CC4)nc3C(C)(C)N)C2=O)n1` [Example 114, 4-(2-aminopropan-2-yl)-2-[6-(4-ethyl-4H-1,2,4-triazol-3-yl)pyridin-2-yl]-6-(1-methylcyclo-propyl)-2,3-dihydro-1H-pyrrolo[3,4-c]pyridin-1-one], the Ki in assay [1] was determined as 0.41 nM. Also, in assay [2], the IC50 was 148 nM.

`CCn1cnnc1-c1cccc(N2Cc3c(cc(C4(C)CC4)nc3[C@@H](C)N)C2=O)n1` [Example 115, 4-[(1R)-1-aminoethyl]-2-[6-(4-ethyl-4H-1,2,4-triazol-3-yl)pyridin-2-yl]-6-(1-methylcyclo-propyl)-2,3-dihydro-1H-pyrrolo[3,4-c]pyridin-1-one]: the Ki in assay [1] amounted to 0.56 nM. Moreover, in assay [2], the IC50 is 216 nM.
